The values that follow come from US20100160369A1, “S1P1 Agonists and Methods of Making And Using” (EXELIXIS, INC., priority 2008, published 2010).

Where only a bound is given, the exact number is not on record here.

One experiment deals with T1, hS1P1R (hEdg1) (Homo sapiens, UniProt P21453).
T1 construct: purchased Lonza
Description: hS1P1R GTPγS Binding Assay (Assay 3a). The format is biochemical. As for the experimental part:
The hS1P1R GTPγS binding assay was carried out at room temperature in 96 well non-binding surface assay plates. The reaction in each well contained 4 μg hS1P1R (hEdg1) membrane protein (Lonza), 30 μM GDP, 0.1 nM [^35S]GTPγS, 0.25% fatty acid free BSA, and serially diluted hS1P1R agonist compound in 200 μL assay buffer (25 mM Tris-HCl PH 7.9, 100 mM NaCl, 3 mM MgCl2, and 0.2 mM EGTA). After one hour of incubation, 0.9 mg of WGA (Wheat Germ Agglutinin) SPA beads in 50 μL of assay buffer was added to each well. The SPA beads were spun down after an additional one hour incubation. The radioactivity of the bound GTPγS was counted by reading the assay plate using a MicroBeta.
(§1) Assay 1 is the CNG cAMP Assay as described in Biological Example 1. Assay 2a and 2b are the Tango™ β-arrestin Recruitment Assay in HEK293 and U2OS cells, respectively, as described in Biological Example 2. Assay 3a is the hS1P1R GTPγS Binding Assay as described in Biological Example 3. Assay 3b is the GTP-Eu Binding Assay as described in Biological Example 3. EC50's were measured unless otherwise noted. […] In the table, “nt” means the Compound was not tested and “no” means the compound was tested but had no measurable activity under the assay conditions employed.

Experiment [1] deals with T2, S1P1 (Homo sapiens, UniProt P21453). Description: DELFIA GTP-Eu Binding Assay (Assay 3b). The format is biochemical. More on the design: purchased Lonza; host or cells: CHO cell membranes. The procedure:
The DELFIA GTP-Eu binding assay (PerkinElmer) is a time-resolved fluorometric assay based on GDP-GTP exchange. CHO cell membranes (Lonza) expressing human S1P1 were incubated in 96-well filter plates (Pall, East Hills, N.Y.) in a final volume of 100 μL/well buffer containing 40 μg/mL membrane, 50 mM HEPES, 2 μM GDP, 10 mM MgCl2, 100 mM NaCl, 500 μg/mL Saponin and test compound. Test compounds were tested at maximum concentrations of 10 μM. Compounds were diluted (10 concentration points, 3-fold each) and added to the assay plate at a 1% final DMSO concentration. For each compound, there were duplicate assay plates and each assay plate had duplicate wells per concentration point. The plates were incubated for 30 min at room temperature on a plate shaker at low speed. GTP-Eu was added to each well (10 μL, 10 nM final concentration) and the plate was incubated for an additional 30 min with slow shaking The wells were washed with ice cold GTP washing buffer (3×150 μL) using a vacuum manifold and the assay plates read in an EnVision plate reader (PerkinElmer) at an excitation wavelength of 340 nm and an emission wavelength of 615 nm. To determine agonist activity, percent activity was calculated as [(test compound−background)/(positive control−background)*100], where background is the fluorescence in absence of compound and the positive control is the fluorescence from membranes incubated with 1 μM S1P (Avanti). The percent activities were plotted against compound concentration to determine IC50 or EC50 using XLFit (IDBS).
as §1
Target sequence in this assay (P21453 whole entry): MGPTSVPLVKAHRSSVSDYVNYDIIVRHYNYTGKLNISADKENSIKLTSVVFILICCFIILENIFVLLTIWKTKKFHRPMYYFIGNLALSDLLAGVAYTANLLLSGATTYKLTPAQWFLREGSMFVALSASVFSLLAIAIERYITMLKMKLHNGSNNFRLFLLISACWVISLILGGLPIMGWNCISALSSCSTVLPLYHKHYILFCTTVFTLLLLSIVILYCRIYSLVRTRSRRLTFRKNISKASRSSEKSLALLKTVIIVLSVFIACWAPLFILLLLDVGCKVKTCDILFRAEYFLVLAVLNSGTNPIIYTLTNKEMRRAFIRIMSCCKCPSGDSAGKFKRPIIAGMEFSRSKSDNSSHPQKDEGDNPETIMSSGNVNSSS

For experiment [2], the target named is T2, S1P1. Put plainly: CNG cAMP Assay (Assay 1). The class given is cell-based. The arrangement: host or cells: HEK293 cells expressing the CNG channel. As to conditions: read-out: Assay 1 EC50. The procedure, abridged: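 HEK293 cells expressing CNG channel and S1P1, membrane-potential dye loaded; compounds (top 10 μM, 10-point 3-fold, 1.8% DMSO) added with 25 μM Ro 20-1724, 500 nM NECA and 10 nM S1P for 90 min. T90/T0 fluorescence (Ex 350/Em 590 nm) normalised to NECA-alone vs DMSO; EC50 fitted.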
Target sequence in this assay (P21453 whole entry): as above

Experiment [3] concerns the target T2, S1P1. Put plainly: Tango β-arrestin Recruitment Assay in HEK293 cells (Assay 2a). The class given is cell-based. More on the design: linker with TEV protease (N1a) cleavage site (C); host or cells: HEK293, transiently transfected. Conditions: Tango β-arrestin Recruitment Assay, read-out: Assay 2a EC50. In a few lines:
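HEK293 cells transiently expressing S1P1 (TEV-cleavable tTA fusion) with β-arrestin2–TEV; compounds up to 10 μM, 10-point 3-fold, 1% DMSO, 30 min then 16–18 h at 37 °C. Luciferase luminescence normalised to 5 μM S1P as 100% and DMSO as background; EC50 from percent-activity curves.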
Target sequence in this assay (P21453 whole entry): as above
Target sequence in this assay (P32121 whole entry partner): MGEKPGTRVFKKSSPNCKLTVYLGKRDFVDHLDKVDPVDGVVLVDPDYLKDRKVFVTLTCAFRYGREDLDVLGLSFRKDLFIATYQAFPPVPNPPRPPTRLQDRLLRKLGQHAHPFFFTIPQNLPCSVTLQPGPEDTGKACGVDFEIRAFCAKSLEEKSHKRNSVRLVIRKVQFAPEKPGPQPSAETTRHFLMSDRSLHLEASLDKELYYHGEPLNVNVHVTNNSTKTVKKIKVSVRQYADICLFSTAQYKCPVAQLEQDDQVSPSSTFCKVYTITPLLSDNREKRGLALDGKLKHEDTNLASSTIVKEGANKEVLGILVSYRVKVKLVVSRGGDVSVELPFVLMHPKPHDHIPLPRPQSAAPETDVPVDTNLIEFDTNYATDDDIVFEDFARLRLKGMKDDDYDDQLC
For orientation: Recruitment of arrestin is a read-out of receptor activation apart from second messengers.

The target of experiment [4] is T2, S1P1. Put plainly: Tango β-arrestin Recruitment Assay in U2OS cells (Assay 2b). The class given is cell-based. As to conditions: Tango β-arrestin Recruitment Assay, read-out: Assay 2b EC50. The arrangement: linker with TEV protease (N1a) cleavage site (C). In a few lines:
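U2OS cells expressing S1P1 and reporter, serum-starved 48 h, treated with compound (10-point 3-fold series, top 1 μM, 1% DMSO) overnight at 37 °C; β-lactamase substrate added 2 h at room temperature. F460/F530 ratio normalised to 1 μM S1P (100%) and DMSO; EC50 from concentration-response.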
Target sequence in this assay (P21453 whole entry): as the sequence (P21453 whole entry) above
Target sequence in this assay (P32121 whole entry partner): as the sequence (P32121 whole entry partner) above

T1 sequence (P21453 whole entry): as the sequence (P21453 whole entry) above

For orientation: EC50 means the concentration giving half of the maximal effect. `O=C(O)CCc1ccc(-c2noc(-c3cn4cc(C(F)(F)F)cc(Cl)c4n3)n2)cc1Cl` [Entry 7]: the EC50 on hS1P1R (hEdg1) is 1000 to 5000 nM; at S1P1 [1] (relative EC50 was measured (footnote 1), read-out: Assay 3b Relative EC50) it was 100 to 500 nM; at S1P1 [2], ≤ 100 nM; on S1P1 [3], ≤ 100 nM.

Take `Cc1cc(C2CC2C(=O)O)c(F)cc1-c1noc(-c2cn3cc(C(F)(F)F)cc(Cl)c3n2)n1` (centres unmarked) [Example 79, 2-(4-{5-[8-chloro-6-(trifluoromethyl)imidazo[1,2-a]pyridin-2-yl]-1,2,4-oxadiazol-3-yl}-2-fluoro-5-methylphenyl)cyclopropanecarboxylic acid]: the EC50 on hS1P1R (hEdg1) is 500 to 1000 nM; at S1P1 [1] (read-out: Assay 3b EC50), 100 to 500 nM; at S1P1 [2], ≤ 100 nM; at S1P1 [3] it was ≤ 100 nM.

For the compound `C[C@@H](CO)Oc1cc(Cl)c(-c2noc(-c3cn4cc(C(F)(F)F)cc(Cl)c4n3)n2)cc1F` [Example 96, (2S)-2-[(5-chloro-4-{5-[8-chloro-6-(trifluoromethyl)imidazo[1,2-a]pyridin-2-yl]-1,2,4-oxadiazol-3-yl}-2-fluorophenyl)oxy]propan-1-ol], the EC50 is ≤ 100 nM at hS1P1R (hEdg1), 100 to 500 nM on S1P1 [1] (read-out: Assay 3b EC50), ≤ 100 nM on S1P1 [2] and ≤ 100 nM at S1P1 [3].

Regarding `Cc1cc(-c2noc(-c3cn4cc(C(F)(F)F)cc(Cl)c4n3)n2)cc(C)c1OCC(O)CO` (centres unmarked) [Example 161, 3-[(4-{5-[8-chloro-6-(trifluoromethyl)imidazo[1,2-a]pyridin-2-yl]-1,2,4-oxadiazol-3-yl}-2,6-dimethylphenyl)oxy]propane-1,2-diol], the EC50 on hS1P1R (hEdg1) was ≤ 100 nM; at S1P1 [1] (read-out: Assay 3b EC50), 100 to 500 nM; on S1P1 [2], ≤ 100 nM; at S1P1 [3], ≤ 100 nM.

Consider `CS(=O)(=O)Nc1ccc(-c2nnc(-c3cn4cc(C(F)(F)F)cc(Cl)c4n3)s2)c(Cl)c1` [Example 239, N-(3-chloro-4-{5-[8-chloro-6-(trifluoromethyl)imidazo[1,2-a]pyridin-2-yl]-1,3,4-thiadiazol-2-yl}phenyl)methanesulfonamide], for which the EC50 is ≤ 100 nM at S1P1 [4], 100 to 500 nM on S1P1 [1] (read-out: Assay 3b EC50), ≤ 100 nM at S1P1 [2] and ≤ 100 nM at S1P1 [3].

Take `NCCOc1ccc(-c2nnc(-c3cn4cc(C(F)(F)F)cc(Cl)c4n3)s2)c(Cl)c1` [Example 244, 2-[(3-chloro-4-{5-[8-chloro-6-(trifluoromethyl)imidazo[1,2-a]pyridin-2-yl]-1,3,4-thiadiazol-2-yl}phenyl)oxy]ethanamine]: the concentration giving a half-maximal response (EC50) is 100 to 500 nM on hS1P1R (hEdg1), 500 to 1000 nM at S1P1 [1] (read-out: Assay 3b EC50), ≤ 100 nM at S1P1 [2] and 100 to 500 nM at S1P1 [3].

On to `CC(CO)Oc1ccc(-c2noc(-c3cn4cc(C(F)(F)F)cc(Cl)c4n3)n2)c(Cl)c1` (centres unmarked) [Example 256, 2-[(3-chloro-4-{5-[8-chloro-6-(trifluoromethyl)imidazo[1,2-a]pyridin-2-yl]-1,2,4-oxadiazol-3-yl}phenyl)oxy]propan-1-ol], for which the EC50 on hS1P1R (hEdg1) is 500 to 1000 nM; at S1P1 [1] (read-out: Assay 3b EC50) it was 100 to 500 nM; at S1P1 [2], ≤ 100 nM; at S1P1 [3], ≤ 100 nM.

As to `NCCOc1ccc(-c2noc(-c3cn4cc(C(F)(F)F)cc(Cl)c4n3)n2)c(Cl)c1` [Example 257, 2-[(3-chloro-4-{5-[8-chloro-6-(trifluoromethyl)imidazo[1,2-a]pyridin-2-yl]-1,2,4-oxadiazol-3-yl}phenyl)oxy]ethanamine], the EC50 is 100 to 500 nM at S1P1 [4], 100 to 500 nM at S1P1 [1] (read-out: Assay 3b EC50), ≤ 100 nM on S1P1 [2] and ≤ 100 nM at S1P1 [3].

Consider `CC(CO)Oc1cc(Cl)c(-c2noc(-c3cn4cc(C(F)(F)F)cc(Cl)c4n3)n2)cc1F` (centres unmarked) [Example 259, 2-[(5-chloro-4-{5-[8-chloro-6-(trifluoromethyl)imidazo[1,2-a]pyridin-2-yl]-1,2,4-oxadiazol-3-yl}-2-fluorophenyl)oxy]propan-1-ol], for which the EC50 on hS1P1R (hEdg1) was ≤ 100 nM; on S1P1 [1] (read-out: Assay 3b EC50), 100 to 500 nM; at S1P1 [2] it was ≤ 100 nM; at S1P1 [3], ≤ 100 nM.

Turning to `O=C(O)CCc1ccc(-c2nnc(-c3cn4cc(C(F)(F)F)cc(Cl)c4n3)s2)c(Cl)c1` [Example 283, 3-(3-chloro-4-{5-[8-chloro-6-(trifluoromethyl)imidazo[1,2-a]pyridin-2-yl]-1,3,4-thiadiazol-2-yl}phenyl)propanoic acid], the concentration for a half-maximal effect (EC50) was 100 to 500 nM on hS1P1R (hEdg1), 100 to 500 nM at S1P1 [1] (read-out: Assay 3b EC50), ≤ 100 nM on S1P1 [2] and ≤ 100 nM on S1P1 [3].

As to `Cc1c(I)ccc2nc(-c3nc(-c4cc(F)c(CCC(=O)O)cc4Cl)no3)cn12` [Example 300, 3-{5-chloro-2-fluoro-4-[5-(6-iodo-5-methylimidazo[1,2-a]pyridin-2-yl)-1,2,4-oxadiazol-3-yl]phenyl}propanoic acid], the EC50 at hS1P1R (hEdg1) is 1000 to 5000 nM; at S1P1 [1] (read-out: Assay 3b EC50) it was 100 to 500 nM; at S1P1 [2], ≤ 100 nM; on S1P1 [3] it was ≤ 100 nM.
